The results in this text go back to patent publication US20240190916A1, “NOVEL PEPTIDE” (HYSENSBIO, priority 2022, published 2024).

Holding throughout (assay type): cell-based
The test system of test [1] is DSPP gene. As to the kind of experiment: DSPP mRNA level by real-time PCR in human dental pulp cells. The following applies: peptide 10 ug/ml, compared to untreated control. How it is done: Human pulp tissue cells were isolated from wisdom teeth of 10 adults (18-22 years old) at Seoul National University Dental Hospital. Specifically, all experiments were performed with the patient's consent after approval from the hospital's Institutional Review Board, and wisdom teeth are cut according to a method of Jung H S et al (J Mol Histol. (2011)), exposing the pulp and isolating the pulp with forceps. The isolated pulp was minced on both sides, placed in a 60 mm dish, covered with a cover slip, and then cultured in Dulbecco's Modified Eagle medium. It is known that human dental pulp cells can differentiate into odontoblasts, osteoblasts, cementoblasts and periodontal ligament cells under various conditions (Tissue Eng Part A. 2014 April; 20(7-8): 1342-51).
(§1) Total RNA of human dental pulp cells and mesenchymal stem cells was isolated using a TRIzol reagent. cDNA was synthesized using 2 μg of total RNA, 1 μl of reverse transcriptase, and 0.5 μg of oligo (dT). The synthesized cDNA was used for real-time polymerase chain reaction. The real-time polymerase chain reaction was performed in ABI PRISM 7500 sequence detection system (Applied Biosystems) using SYBR GREEN PCR Master Mix (Takara, Japan). The real-time polymerase chain reaction was performed at 94° C., 1 min; 95° C., 15 sec-60° C., 34 sec was performed under the condition of repeating 40 cycles. An analysis of the results was evaluated using a comparative cycle threshold (CT) method, and primer base sequences are listed in Table 9.
The effect of each group of peptides on DSPP mRNA expression was confirmed by real-time PCR (Table 10).

Test [2] has as its system DMP1 gene. As to the kind of experiment: DMP1 mRNA level by real-time PCR in human-derived mesenchymal stem cells. Particulars: compared to untreated control. How it is done:
(§2) It was cultured at 37° C. in humid air containing 5% CO2 and used for the experiment. Human mesenchymal stem cells (hBMSCs) were purchased from Lonza (LONZA, Switzerland) and used. hBMSCs were cultured in a-MEM (Invitrogen) medium supplemented with 10% heat-inactivated bovine serum.
as §1
(§3) BSP and DMP1 genes are used as markers for differentiation of osteoblasts and cementoblasts, and are known as important genes for calcification of a bone and cementum. The effects of each group of peptides on BSP and DMP1 mRNA expression were confirmed by a real-time PCR (Tables 11 and 12).
In general terms: Quantitative PCR measures a nucleic acid by following its amplification.

Test [3] concerns BSP gene. In words: BSP mRNA level by real-time PCR in human-derived mesenchymal stem cells. Particulars: compared to untreated control. How it is done:
as §2, §1, §3

Turning to KYAKKKKNYK [SEQ ID NO: 33], the “mRNA level of DSPP gene, Average” value in test [1] is listed as 1.813 fold. Also, the “mRNA level of DMP1 gene, DMP1 gene expression, Average” value (from here on “mRNA level of DMP1 gene”) in test [2] is 7.709 fold. The “mRNA level of BSP gene, BSP gene expression, Average” value (from here on “mRNA level of BSP gene”) in test [3] came to 2.092 fold.
The corresponding values for KYAKKKKSYK [SEQ ID NO: 41] are 1.897 fold, 7.727 fold and 1.762 fold.
With KYAKKKRNYK [SEQ ID NO: 34], in test [1], the “mRNA level of DSPP gene, Average” value is 2.361 fold. Besides, the “mRNA level of DMP1 gene” value in test [2] is on record as 7.031 fold. Besides, the “mRNA level of BSP gene” value in test [3] is 2.136 fold.
Take KYAKKKRSYK [SEQ ID NO: 42]: in test [1], the “mRNA level of DSPP gene, Average” value was 1.811 fold. For the same sequence, the “mRNA level of DMP1 gene” value in test [2] is 7.367 fold. The “mRNA level of BSP gene” value in test [3] turned out to be 1.882 fold.
Regarding KYAKKRKNYK [SEQ ID NO: 35], in test [1], the “mRNA level of DSPP gene, Average” value was determined as 1.572 fold. For the same sequence, the “mRNA level of DMP1 gene” value in test [2] is reported as 7.527 fold. Moreover, in test [3], the “mRNA level of BSP gene” value worked out at 2.372 fold.
On the same counts, the results for KYAKKRKSYK [SEQ ID NO: 43] are 1.620 fold, 6.791 fold and 2.011 fold.
As for KYAKKRRNYK [SEQ ID NO: 37], the “mRNA level of DSPP gene, Average” value in test [1] stood at 1.67 fold. Besides, in test [2], the “mRNA level of DMP1 gene” value was 7.032 fold. For the same sequence, the “mRNA level of BSP gene” value in test [3] was found to be 1.999 fold.
On the same counts, the results for KYAKKRRSYK [SEQ ID NO: 45] are 2.125 fold, 7.309 fold and 1.878 fold.
For the sequence KYAKRKKNYK [SEQ ID NO: 36], in test [1], the “mRNA level of DSPP gene, Average” value is given as 1.702 fold. Further, the “mRNA level of DMP1 gene” value in test [2] is reported as 6.999 fold. In addition, in test [3], the “mRNA level of BSP gene” value turned out to be 2.207 fold.
As to KYAKRKKSYK [SEQ ID NO: 44], the “mRNA level of DSPP gene, Average” value in test [1] worked out at 2.121 fold. In test [2], the “mRNA level of DMP1 gene” value is listed as 7.663 fold. In test [3], the “mRNA level of BSP gene” value is 1.699 fold.
On the same counts, the results for KYAKRKRNYK [SEQ ID NO: 40] are 2.121 fold, 7.635 fold and 2.102 fold.
The corresponding values for KYAKRKRSYK [SEQ ID NO: 48] are 2.516 fold, 6.757 fold and 1.773 fold.
KYAKRRKNYK [SEQ ID NO: 38]: the “mRNA level of DSPP gene, Average” value in test [1] came out at 1.705 fold. For the same sequence, the “mRNA level of DMP1 gene” value in test [2] is reported as 7.777 fold. The “mRNA level of BSP gene” value in test [3] amounted to 2.507 fold.
On the same counts, the results for KYAKRRKSYK [SEQ ID NO: 46] are 1.836 fold, 7.294 fold and 1.863 fold.
As to KYAKRRRNYK [SEQ ID NO: 39], the “mRNA level of DSPP gene, Average” value in test [1] worked out at 2.015 fold. Further, the “mRNA level of DMP1 gene” value in test [2] was determined as 6.989 fold. Moreover, the “mRNA level of BSP gene” value in test [3] worked out at 2.293 fold.
As for KYAKRRRSYK [SEQ ID NO: 47], the “mRNA level of DSPP gene, Average” value in test [1] is on record as 1.620 fold. Moreover, in test [2], the “mRNA level of DMP1 gene” value came out at 7.107 fold. In test [3], the “mRNA level of BSP gene” value was determined as 2.063 fold.
Regarding KYARKKKNYK [SEQ ID NO: 49], in test [1], the “mRNA level of DSPP gene, Average” value is recorded as 1.798 fold. The “mRNA level of DMP1 gene” value in test [2] is reported as 6.789 fold. Also, the “mRNA level of BSP gene” value in test [3] was 1.971 fold.
KYARKKKSYK [SEQ ID NO: 57]: the “mRNA level of DSPP gene, Average” value in test [1] turned out to be 1.886 fold. Besides, the “mRNA level of DMP1 gene” value in test [2] was 6.059 fold. The “mRNA level of BSP gene” value in test [3] amounted to 1.679 fold.
Turning to KYARKKRNYK [SEQ ID NO: 50], the “mRNA level of DSPP gene, Average” value in test [1] is listed as 1.661 fold. In addition, the “mRNA level of DMP1 gene” value in test [2] was determined as 6.109 fold. In addition, in test [3], the “mRNA level of BSP gene” value came to 1.901 fold.
The corresponding values for KYARKKRSYK [SEQ ID NO: 58] are 1.811 fold, 5.999 fold and 1.811 fold.
Turning to KYARKRKNYK [SEQ ID NO: 51], the “mRNA level of DSPP gene, Average” value in test [1] was determined as 2.572 fold. Moreover, the “mRNA level of DMP1 gene” value in test [2] is recorded as 5.272 fold. In addition, in test [3], the “mRNA level of BSP gene” value is 1.899 fold.
The corresponding values for KYARKRKSYK [SEQ ID NO: 59] are 2.120 fold, 5.510 fold and 1.629 fold.
Take KYARKRRNYK [SEQ ID NO: 53]: the “mRNA level of DSPP gene, Average” value in test [1] is on record as 2.037 fold. For the same sequence, the “mRNA level of DMP1 gene” value in test [2] is recorded as 6.483 fold. In addition, in test [3], the “mRNA level of BSP gene” value was found to be 2.036 fold.
On the same counts, the results for KYARKRRSYK [SEQ ID NO: 61] are 1.525 fold, 5.787 fold and 1.832 fold.
On the same counts, the results for KYARRKKNYK [SEQ ID NO: 52] are 2.102 fold, 5.991 fold and 1.999 fold.
As to KYARRKKSYK [SEQ ID NO: 60], the “mRNA level of DSPP gene, Average” value in test [1] is 2.195 fold. Besides, the “mRNA level of DMP1 gene” value in test [2] came to 5.078 fold. Moreover, the “mRNA level of BSP gene” value in test [3] is reported as 1.991 fold.
As for KYARRKRNYK [SEQ ID NO: 56], the “mRNA level of DSPP gene, Average” value in test [1] stood at 2.021 fold. Besides, the “mRNA level of DMP1 gene” value in test [2] is given as 5.798 fold. Also, in test [3], the “mRNA level of BSP gene” value was 2.016 fold.
The corresponding values for KYARRKRSYK [SEQ ID NO: 64] are 1.606 fold, 6.123 fold and 2.021 fold.
With KYARRRKNYK [SEQ ID NO: 54], in test [1], the “mRNA level of DSPP gene, Average” value was 2.005 fold. Besides, in test [2], the “mRNA level of DMP1 gene” value came out at 6.531 fold. Also, the “mRNA level of BSP gene” value in test [3] is listed as 2.1 fold.
On the same counts, the results for KYARRRKSYK [SEQ ID NO: 62] are 1.836 fold, 5.333 fold and 1.769 fold.
The corresponding values for KYARRRRNYK [SEQ ID NO: 55] are 1.921 fold, 6.111 fold and 1.773 fold.
The corresponding values for KYARRRRSYK [SEQ ID NO: 63] are 2.120 fold, 5.727 fold and 2.237 fold.
